From US20140303092A1 (CHIMERIX, INC., priority 2011, published 2014)
“And” between values parts separate entries of the source, which are not always exact repeats. Equal values may be shown once.

System: CMV
Test: Study HDP-CDV-201: prevention or control of CMV infection in R+ HSCT recipients (efficacy)
Type: in vivo, human (adult allogeneic HSCT recipients)
Conditions: for Rate of CMV Disease or End of Treatment CMV Infection (≧200 copies/ml): missing=infection; for Rate of CMV DNAemia ≧1000 copies/mL during the treatment period: post hoc; for Developed CMV DNAemia (≧100 copies/mL) during the treatment period: plasma CMV DNA negative at baseline
Procedure: The clinical study of the current invention (HDP-CDV-201) was a 9-11 week randomized, placebo-controlled, double-blind, dose-escalation study (40 mg weekly [QW], 100 mg QW, 200 mg QW, 200 mg twice-weekly [BIW], and 100 mg BIW) of HDP-CDV for the prevention of CMV infection post-HCT. Treatment was initiated at the time of engraftment and continued until Week 13 post-HCT. HDP-CDV, at various doses, was active and well tolerated in the prevention CMV infection or disease.
Clinical Studies of HDP-CDV were performed and described in detail in the following Examples. For example, HDP-CDV-201 is a placebo-controlled, dose-escalating trial in HSCT CMV (R+) recipients, evaluating the ability of HDP-CDV to prevent or control CMV infection was carried out. Five cohorts were established in which participants or subjects received either placebo or the HDP-CDV orally, in doses ranging from 40 mg weekly (QW) to 200 mg twice weekly (BIW). Subjects who were post-HSCT were enrolled at the time of engraftment and randomized to HDP-CDV or placebo (3 to 1 ratio) and received blinded therapy until approximately 100 day post-transplantation. HDP-CDV doses were 40 mg QW, 100 mg QW, 200 mg QW, 200 mg BIW and 100 mg BIW. Escalation to the next dose was decided by the data monitoring committee after review of the safety data from the previous Cohort. Subjects who developed CMV disease or CMV infection requiring pre-emptive therapy with local standard of care were discontinued from blinded therapy and followed for 4 weeks. Subjects who completed treatment with blinded therapy were followed for 8 weeks post-therapy.
The primary endpoint was defined as the incidence of CMV disease at any time during treatment or CMV DNAemia≧200 copies/mL at the end of treatment. All subjects who received at least one dose of drug/placebo and had at least one efficacy evaluation post baseline were included in the primary analysis, regardless of their CMV DNAemia status (negative or positive) at baseline (mITT population). Results for the pooled HDP-CDV Cohorts and for each Cohort separately were analyzed versus that for pooled placebo.
The primary efficacy measure for this study was treatment failure, defined as the occurrence of CMV infection, defined as CMV DNAemia>200 copies/mL at the End of Treatment or diagnosis of CMV disease at any time during the treatment period. For the analysis, the following definitions apply:
For subjects who completed the treatment phase of the study, the End of Treatment was defined as the latest assessment from date of the last dose of study drug and up to 7 days for QW dosing, or the date of the last dose of study drug and up to 4 days for BIW dosing. For subjects who discontinued during the treatment phase of the study, the End of Treatment was defined as the date of the last dose of study drug.
The time to event was defined as the period between FDD and date of first occurrence of the event of interest (inclusive). The events included onset of CMV DNAemia, onset of CMV disease, and discontinuation because of excluded anti-CMV medications. Time to event/onset was derived as (the event/onset date—FDD)+1.
As detailed in the Statistical Analysis Plan, a modified CMV stratum was defined prior to conducting the statistical analysis based upon polymerase chain reaction (PCR) results from the central laboratory. If any positive CMV DNA value in plasma was collected before the first dose of study drug (including Screening, Pre-dose, (combined Screening/Pre-dose), CMV for stratification, and FDD), then the subject was placed into the modified CMV positive (≧100 copies/mL) stratum, otherwise the subject was in the modified CMV negative stratum. […]

[1] = 100 mg BIW, modified CMV negative stratum
[2] = 100 mg BIW, whole study period, CMV DNA negative at baseline
[3] = 100 mg QW, CMV modified strata: negative
[4] = 100 mg QW, CMV modified strata: positive
[5] = 100 mg QW, active treatment period
[6] = 100 mg QW, modified CMV negative stratum

CCCCCCCCCCCCCCCCOCCCOP(=O)(O)COC(CO)Cn1ccc(N)nc1=O (stereo not drawn) [HDP-CDV]
Incidence of CMV disease or initiation of anti-CMV preemptive therapy (100 mg BIW, mITT): 14%
Subjects Receiving Antiviral Therapy and/or had CMV disease (100 mg BIW, mITT): 7 (14.0%) subjects (%)
Subjects without a CMV event (100 mg BIW, mITT): 43 (86.0%) subjects (%)
Time to Antiviral Therapy, Median (100 mg BIW, mITT): 23.0 days
Rate of CMV Disease or End of Treatment CMV Infection (≧200 copies/ml) (100 mg BIW, mITT): 10%
Rate of CMV DNAemia ≧1000 copies/mL during the treatment period (100 mg BIW, mITT): 8%
Time to Antiviral Therapy, Mean (100 mg BIW, mITT, censored values not included): 23.1 days
% CMV Event Rate: Incidence of CMV DNAemia >100 copies/mL During Treatment (Fisher analysis, ref 14.3.3.2.1) [1]: 9 (22.5%) subjects (%)
% CMV Event Rate: Incidence of CMV DNAemia ≧1,000 copies/mL at any time during treatment [1]: 0 subjects (%)
% CMV Event Rate: onset of CMV DNAemia During Whole Study [1]: 14 (33.3%) subjects (%)
Combined CMV event rate (CMV disease, viremia requiring treatment, viremia ≧1000 copies/mL) [1]: 12.2%
Subjects Who Had CMV-related Event (CMV disease, CMV DNAemia ≧1,000 c/mL or initiation of anti-CMV treatment) [1]: 5 (12.2%) subjects (%)
Subjects without a CMV-related event [1]: 36 (87.8%) subjects (%)
Developed CMV DNAemia (≧100 copies/mL) during the treatment period (100 mg BIW, mITT): 10 (23.8.%) N(%) and 10 (23.8%) N(%)
Time to CMV DNAemia (≧100 copies/mL), Median (100 mg BIW, treatment period, CMV DNA negative at baseline): 20.0 days
Time to CMV DNAemia (≧100 copies/mL), Mean (100 mg BIW, treatment period, CMV DNA negative at baseline, censored values not included): 28.8 days
Number of Subjects who had CMV DNAemia (≧100 copies/mL) by the end of study [2]: 14
Time to CMV DNAemia (≧100 copies/mL), Mean [2]: 42.8 days
Time to CMV DNAemia (≧100 copies/mL), Median [2]: 32.5 days
Incidence of composite endpoint (initiation of anti-CMV therapy or CMV disease or CMV DNAemia >1,000 copies/mL) (100 mg QW): 21.7%
Difference (HDP-CDV minus placebo) in infection rate [3]: −16.7%
Difference (HDP-CDV minus placebo) in rate of CMV DNAemia ≧1,000 copies/ml [3]: −23.2%
Rate of CMV DNAemia ≧1,000 copies/ml during the treatment period [3]: 8.7%
Rate of CMV Disease or End of Treatment CMV Infection [3]: 13.0%
Difference (HDP-CDV minus placebo) in rate of CMV DNAemia ≧1,000 copies/mL [4]: 16.7%
Rate of CMV DNAemia ≧1,000 copies/mL during the treatment period [4]: 100.0%
Rate of CMV Disease or End of Treatment CMV Infection (100 mg QW, aGVHD randomization strata: negative): 24.0%
Difference (HDP-CDV minus placebo) in infection rate (100 mg QW, aGVHD strata: negative): −8.1%
Discontinuation: Emergence of CMV disease [5]: 3 Subject n (%) and 3 (11.1%) Subject n (%)
Discontinuation: Initiation of alternate CMV therapy [5]: 4 (14.8%) Subject n (%)
Difference (HDP-CDV minus placebo) in rate of CMV DNAemia ≧1000 copies/mL (100 mg QW, mITT): −20.2%
Difference (HDP-CDV minus placebo) in rate of CMV disease or end of treatment CMV infection (100 mg QW, mITT): −15.1%
Subjects Receiving Antiviral Therapy and/or had CMV disease (100 mg QW, mITT): 7 (25.9%) subjects (%)
Subjects without a CMV event (100 mg QW, mITT): 20 (74.1%) subjects (%)
Time to Antiviral Therapy, Median (100 mg QW, mITT): 41.0 days
Rate of CMV Disease or End of Treatment CMV Infection (≧200 copies/ml) (100 mg QW, mITT): 22% and 22.2%
Rate of CMV DNAemia ≧1000 copies/mL during the treatment period (100 mg QW, mITT): 22.2%
Time to Antiviral Therapy, Mean (100 mg QW, mITT, censored values not included): 41.9 days
% CMV Event Rate: Incidence of CMV DNAemia >100 copies/mL During Treatment (Fisher analysis, ref 14.3.3.2.1) [6]: 5 (21.7%) subjects (%)
% CMV Event Rate: Incidence of CMV DNAemia ≧1,000 copies/mL at any time during treatment [6]: 2 (8.7%) subjects (%)
% CMV Event Rate: onset of CMV DNAemia During Whole Study [6]: 8 (34.8%) subjects (%)
Subjects Who Had CMV-related Event (CMV disease, CMV DNAemia ≧1,000 c/mL or initiation of anti-CMV treatment) [6]: 5 (21.7%) subjects (%)
Subjects without a CMV-related event [6]: 18 (78.3%) subjects (%)
Developed CMV DNAemia (≧100 copies/mL) during the treatment period (100 mg QW, mITT): 5 (21.7%) N(%)
Time to CMV DNAemia (≧100 copies/mL), Median (100 mg QW, treatment period, CMV DNA negative at baseline): 30.0 days
